Measurements from US20190151341A1, “APPLICATION OF TENVERMECTIN FOR PREVENTING AND TREATING PARASITE INFECTION” (ZHEJIANG HISUN PHARMACEUTICAL CO., LTD., priority 2016, published 2019).

Key:
[1] = system: allogynogenetic crucian carp; experiment: Toxicity to allogynogenetic crucian carp, semi-static method, 96 hours; type: in vivo
Text: Test fish and water: allogynogenetic crucian carp was purchased from Taowang Farm in Jiaojiang District, Taizhou City, with a body length of (9.60±0.52) cm and a body weight of (28.22±3.44) g. The healthy and vigorous fish with the same size were selected and temporarily raised in an indoor aquarium. They were domesticated for 7 days indoors before the test. The natural mortality rate was zero.
99.4% Tenvermectin A (the mass content of tenvermectin B was 0.02%) (Zhejiang Hisun Pharmaceutical Co., Ltd.);
Tenvermectin (the mass ratio of tenvermectin A/tenvermectin B was 95/5) (Zhejiang Hisun Pharmaceutical Co., Ltd.);
Tenvermectin (the mass ratio of tenvermectin A/tenvermectin B was 90/10) (Zhejiang Hisun Pharmaceutical Co., Ltd.);
Tenvermectin (the mass ratio of tenvermectin A/tenvermectin B was 85/15) (Zhejiang Hisun Pharmaceutical Co., Ltd.);
99.1% Tenvermectin B (the mass content of tenvermectin A was 0.51%) (Zhejiang Hisun Pharmaceutical Co., Ltd.);
92% Avermectin (Zhejiang Qianjiang Biochemical Co., Ltd.);
96% Ivermectin (Zhejiang Hisun Pharmaceutical Co., Ltd.);
90% Methylamino avermectin benzoate (Emamectin benzoate) (Zhejiang Shenghua Biok Biotechnology Co., Ltd.).
Method: semi-static method. […]

[2] = system: zebrafish; experiment: Toxicity to zebrafish, semi-static method, 96 hours; conditions: 8 h
Experimental: Test agents: avermectin, milbemycin, ivermectin, tenvermectin A and tenvermectin B were all from Zhejiang Hisun Pharmaceutical Co., Ltd. The samples were formulated into 50 mg/ml mother liquors with DMF.
Test fish and water: zebrafish (Brachydanio rerio) was purchased from Zhejiang Academy of Agricultural Sciences, with the same size, average body length of 2-3 cm and average body weight of 0.3 g. The zebrafish was domesticated for 7 days indoors before the test. […] Feeding was stopped 1 day before the test and the fish were not fed during the test. The test water was tap water with residual chlorine removed by exposure to the sun for more than 24 hours, and the pH thereof was 6.8.
Test methods: semi-static method. Three level differences were provided for each sample: 0.5 ppm, 1.0 ppm and 1.5 ppm, and three parallel groups were provided for each level difference, 10 zebrafish were raised for each group, and blank controls (one group without agents and one group with only solvent) were provided. The corresponding volume of mother liquor was taken according to the concentration as required for each sample, and the volume of each sample was adjusted to 150 μl with DMF, and then each sample was added to the test group (containing 1.6 L of water). The room temperature was controlled at 22±2° C. for 96 hours, and the water was changed every 24 hours and the samples were re-added. The fish mortality rate was recorded for the first 8 hours and at 24, 48, 72 and 96 hours, and the dead fish were removed in time.

[3] = system: swine nematode (nematodes in the digestive tract); experiment: Repelling swine nematode in naturally infected pigs (fecal egg count, McMaster's method); type: in vivo; conditions: 1% injection 0.2 mg/kg bw s.c.
Text: (§1) Test agents: 1% ivermectin injection, 1% tenvermectin A injection, and 1% tenvermectin B injection as obtained in Example 1.
(§2) Test animals and grouping: pigs cultured in the same farm were selected, and 40 pigs naturally infected with nematodes in the digestive tract were selected for testing through fecal examination. The average weight of the test pigs was 30-50 kg. Forty pigs were randomly divided into 4 groups, 10 for each group. The first group was the ivermectin control group, the second group was the tenvermectin A group, and the third group was the tenvermectin B group. All the medicated groups were injected subcutaneously in the neck according to 0.2 mg/kg·bw. The forth group was a blank group and was not administered.
(§3) 1) The feces of the pigs in each group were collected and examined one by one a day before administration, and worm eggs were counted by the McMaster's method. The number of eggs per gram of feces (EPG) was counted and the condition of Haematopinus on the body surface was observed.
(§4) 2) 1, 2, 3 and 4 weeks after administration, the feces of the pigs in each group were examined by the McMaster's method, and the EPG was counted and the changes of Haematopinus on the body surface were observed.
3) The negative conversion rates and egg reduction rates of the test pigs were calculated by a conventional method to assess the efficacy of repelling swine nematode.

[4] = system: Sarcoptes mites; experiment: Treatment of Sarcoptes mites of sheep (skin scrapings, live mites); type: in vivo; conditions: 1% injection 0.2 mg/kg bw s.c.; for Negative conversion number: sheep (10 per group); for Negative conversion rate (%): sheep
Text: Test agents: 1% ivermectin injection, 1% tenvermectin A injection and 1% tenvermectin B injection as obtained in Example 1.
Test animals and grouping: sheep grazed under the same conditions were selected. Upon parasitological examination, 40 sheep which had been infected with sheep Sarcoptes mites were selected. The 40 sheep were randomly divided into 4 groups, 10 heads for each group. The first group was the ivermectin control group, the second group was the tenvermectin A group, and the third group was the tenvermectin B group. All the medicated groups were injected subcutaneously in the neck according to 0.2 mg/kg·bw. The fourth group was a blank group and was not medicated.
Test methods: the changes of clinical symptoms were observed. The skin of sheep was scratched using a surgical blade with glycerin at the junction of the affected part and the healthy skin of the diseased sheep until the skin slightly bled. The skin scraps were taken then were placed in a dish and brought back to the laboratory. Then the skin scraps were placed on a slide, a drop of aqueous solution of 50% glycerol was added, and a cover slip was covered, and then the skin scraps were checked under a low magnification microscope. It was confirmed to be positive if live Sarcoptes mites were observed. Samples were taken before administration and at 1, 2, 3 and 4 weeks after administration to be examined. The samples were examined under a microscope, based on whether live mites were observed, the samples can be determined to be positive as long as one live mite was observed. Changes of clinical symptoms were observed as references.

[5] = system: swine Haematopinus; experiment: Killing effect on swine Haematopinus on the body surface; type: in vivo; conditions: pigs, 1% injection 0.2 mg/kg bw s.c., until the 7th day and in the following 3 weeks
Text: as §1, §2, §3, §4
4) The killing effects of swine Haematopinus of the agents were assessed according to the survival of swine Haematopinus on the 7th day after administration.

[6] = system: digestive tract nematodes; experiment: Repelling nematode in digestive track of sheep (fecal egg count); type: in vivo
Text: as §1
Test animals and grouping: sheep grazed under the same condition were selected, and 80 sheep of 0.8-2.0 years old naturally infected with digestive tract nematodes were selected through fecal examination. The average weight of the test sheep was 30 kg. The 80 sheep were randomly divided into 4 groups, 20 heads for each group. The first group was the ivermectin control group, the second group was the tenvermectin A group, and the third group was the tenvermectin B group. All the medicated groups were injected subcutaneously in the neck according to 0.2 mg/kg·bw. The fourth group was a blank group and was not medicated.
1) The feces of the sheep in each group were collected and examined one by one a day before administration, and the worm eggs were counted by the McMaster's method, and the number of eggs per gram of feces (EPG) was counted.
2) On the 9th day after administration, the sheep of each group were subjected to a fecal examination by McMaster's method, and EPG was counted.
3) The egg negative conversion rates and egg reduction rates were calculated according to a conventional method to assess the efficacy.

[7] = allogynogenetic crucian carp, 0.5 ppm, 8 h
[8] = allogynogenetic crucian carp, 1.0 ppm, 8 h
[9] = allogynogenetic crucian carp, 2.0 ppm, 8 h
[10] = sheep, 1% injection 0.2 mg/kg bw s.c., 9th day after administration

Question: With `CC[C@H](C)[C@H]1O[C@]2(C=C[C@@H]1C)C[C@@H]1C[C@@H](C/C=C(\C)[C@@H](O[C@H]3C[C@H](OC)[C@@H](O[C@H]4C[C@H](OC)[C@@H](O)[C@H](C)O4)[C@H](C)O3)[C@@H](C)/C=C/C=C3\CO[C@@H]4[C@H](O)C(C)=C[C@@H](C(=O)O1)[C@]34O)O2` [Avermectin, reference compound] as the compound, how does the “Survival condition (survival rates/%)” value [1, 7] read?
Answer: Its value is 0%.

Question: And the “Survival condition (survival rates/%)” value [1, 8]?
Answer: The value was 0%.

Question: What about the “Survival condition (survival rates/%)” value [1, 9] of the same compound?
Answer: Its value is 0%.

Question: What about the “Survival condition (survival rates/%)” value ([2]; 0.5 ppm) of the same compound?
Answer: Its value is 0%.

Question: What about the “Survival condition (survival rates/%)” value ([2]; 1.0 ppm) of the same compound?
Answer: The value was 0%.

Question: What about the “Survival condition (survival rates/%)” value ([2]; 1.5 ppm) of the same compound?
Answer: The value was 0%.

Question: Which “Survival condition (survival rates/%)” value [1, 7] does the source give for `CC[C@H](C)C1O[C@]2(C=C[C@@H]1C)C[C@@H]1C[C@@H](C/C=C(\C)[C@@H](O[C@H]3C[C@H](OC)[C@@H](O[C@H]4C[C@H](OC)[C@H](NC)[C@H](C)O4)[C@H](C)O3)[C@@H](C)/C=C/C=C3\CO[C@@H]4[C@H](O)C(C)=C[C@@H](C(=O)O1)[C@]34O)O2.O=C(O)c1ccccc1` (some centres unmarked) [Methylamino avermectin benzoate, reference compound] here?
Answer: Its value is 0%.

Question: What about the “Survival condition (survival rates/%)” value [1, 8] of the same compound?
Answer: Its value is 0%.

Question: What about the “Survival condition (survival rates/%)” value [1, 9] of the same compound?
Answer: Its value is 0%.

Question: And the “Survival condition (survival rates/%)” value ([2]; 0.5 ppm)?
Answer: Its value is 0%.

Question: What about the “Survival condition (survival rates/%)” value ([2]; 1.0 ppm) of the same compound?
Answer: The value was 0%.

Question: And the “Survival condition (survival rates/%)” value ([2]; 1.5 ppm)?
Answer: The value was 0%.

Question: Which “Survival condition (survival rates/%)” value [1, 7] does the source give for Ivermectin [reference compound] here?
Answer: The value was 0%.

Question: And the “Survival condition (survival rates/%)” value [1, 8]?
Answer: Its value is 0%.

Question: And the “Survival condition (survival rates/%)” value [1, 9]?
Answer: The value was 0%.

Question: And the “Egg reduction rate (%)” value ([3]; 1st week after administration)?
Answer: Its value is 76.2%.

Question: What about the “Negative conversion rate (%)” value ([3]; 1st week after administration) of the same compound?
Answer: The value was 70%.

Question: What about the “Egg reduction rate (%)” value ([3]; 2nd week after administration) of the same compound?
Answer: Its value is 91.2%.

Question: What about the “Negative conversion rate (%)” value ([3]; 2nd week after administration) of the same compound?
Answer: The value was 90%.

Question: What about the “Egg reduction rate (%)” value ([3]; 3rd week after administration) of the same compound?
Answer: Its value is 100%.

Question: And the “Negative conversion rate (%)” value ([3]; 3rd week after administration)?
Answer: Its value is 80%.

Question: And the “Egg reduction rate (%)” value ([3]; 4th week after administration)?
Answer: The value was 66.2%.

Question: What about the “Negative conversion rate (%)” value ([3]; 4th week after administration) of the same compound?
Answer: The value was 60%.

Question: What about the Negative conversion number ([4]; 1st week) of the same compound?
Answer: The Negative conversion number was 7.

Question: And the Negative conversion number ([4]; 2nd week)?
Answer: Its Negative conversion number is 9.

Question: And the Negative conversion number ([4]; 3rd week)?
Answer: Its Negative conversion number is 10.

Question: What about the Negative conversion number ([4]; 4th week) of the same compound?
Answer: Its Negative conversion number is 10.

Question: What about the “Negative conversion rate (%)” value ([4]; 1st week) of the same compound?
Answer: The value was 70%.

Question: What about the “Negative conversion rate (%)” value ([4]; 2nd week) of the same compound?
Answer: Its value is 90%.

Question: What about the “Negative conversion rate (%)” value ([4]; 3rd week) of the same compound?
Answer: Its value is 100%.

Question: What about the “Negative conversion rate (%)” value ([4]; 4th week) of the same compound?
Answer: The value was 100%.

Question: What about the “Survival condition (survival rates/%)” value ([2]; 0.5 ppm) of the same compound?
Answer: The value was 0%.

Question: And the “Survival condition (survival rates/%)” value ([2]; 1.0 ppm)?
Answer: Its value is 0%.

Question: And the “Survival condition (survival rates/%)” value ([2]; 1.5 ppm)?
Answer: Its value is 0%.

Question: And the “active Haematopinus observed on the body surface” value [5]?
Answer: The value was “no active Haematopinus was found”.

Question: What about the “Number of sheep negatively conversed” value ([6]; sheep (20 per group), 1% injection 0.2 mg/kg bw s.c., 9th day after administration) of the same compound?
Answer: Its value is 20.

Question: And the “Egg reduction rate (%)” value [6, 10]?
Answer: Its value is 100%.

Question: And the “Negative conversion rate (%)” value [6, 10]?
Answer: Its value is 100%.

Question: What about the EPG after administration ([6]; sheep, eggs per gram of feces, 0.2 mg/kg bw s.c., 9th day after administration) of the same compound?
Answer: The EPG after administration was 0.

Question: And the EPG before administration ([6]; sheep, eggs per gram of feces, baseline a day before administration)?
Answer: The EPG before administration was 9100.

Question: Which results are given for Milbemycin [reference compound]?
Answer: Survival condition (survival rates/%) ([1]; in vivo): 0%; Survival condition (survival rates/%) ([2]; 0.5 ppm): 0%; Survival condition (survival rates/%) ([2]; 1.0 ppm): 0%; Survival condition (survival rates/%) ([2]; 1.5 ppm): 0%
